Source: patent publication US20240124503A1, “HETEROAROMATIC PHOSPHONIUM SALTS AND THEIR USE TREATING CANCER” (FLORATEK PHARMA S.A., priority 2021, published 2024)
pIC50, pKd: −log10 of the molar value.

Experiments:
[1] = tested on: CHP-134; experiment: Cell viability assay, CHP-134; format: cell-based; conditions: Homo sapiens; brain carcinoma cell line CHP-134
Method: Antitumor activity of the compounds and doxorubicin as a positive control was assessed by using the CellTiter-Blue Cell Viability Assay (Promega, #G8082) or CellTiter-Glow® Luminescent Cell Viability assay (Promega #G7572) according to the manufacturer's instructions. The compounds were tested at 5 or 6 concentrations in half-log increments (highest concentration 30 μM or 100 μM) in duplicate or triplicate well conditions.
Tumor cells were grown at 37° C. in a humidified atmosphere with 5% CO2 in RPMI 1640 or DMEM medium, supplemented with 10% (v/v) fetal calf serum and 50 μg/ml gentamicin for up to 20 passages, and were passaged once or twice weekly. Cells were harvested using TrypLE or PBS buffer containing 1 mM EDTA, and the percentage of viable cells was determined using a CASY Model TI cell counter (OMNI Life Science). Cells were harvested from exponential phase cultures, counted and plated in 96 well flat-bottom microtiter plates at a cell density depending on the cell line's growth rate (4,000-20,000 cells/well depending on the cell line's growth rate, up to 60,000 for hematological cancer cell lines) in RPMI 1640 or DMEM medium supplemented with 10% (v/v) fetal calf serum and 50 μg/ml gentamicin (140 μl/well). […] Viability of cells was quantified by the CellTiter-Blue® cell viability assay (Promega G8081) or CellTiter-Glow® Luminescent Cell Viability assay (Promega #G7572). […]

[2] = target: T1, RSK2(Kin.Dom.1-N-terminal) (Homo sapiens, UniProt P51812); experiment: KINOMEscan competition binding, RSK2(Kin.Dom.1-N-terminal)
T1 construct: Kin.Dom.1; purchased Eurofins (KINOMEscan); host or cells: E. coli BL21-derived host (T7 phage) or HEK-293
T1 sequence (P51812 68-327 limits assumed): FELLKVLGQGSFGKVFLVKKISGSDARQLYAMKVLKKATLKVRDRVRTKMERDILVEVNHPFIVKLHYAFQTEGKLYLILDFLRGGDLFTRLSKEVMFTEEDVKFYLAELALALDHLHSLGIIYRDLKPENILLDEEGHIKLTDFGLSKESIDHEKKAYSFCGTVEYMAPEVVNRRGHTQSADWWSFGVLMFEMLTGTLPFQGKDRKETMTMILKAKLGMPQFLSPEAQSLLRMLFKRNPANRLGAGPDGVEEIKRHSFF
Method: Selected compounds were screened for kinase inhibition using the KINOMEscan™ assay (Eurofins) which is based on a competition binding assay that quantitatively measures the ability of a compound to compete with an immobilized, active-site directed ligand. The assay was performed by combining three components: DNA-tagged kinase; immobilized ligand; and the test compound. The ability of the test compound to compete with the immobilized ligand was measured via quantitative PCR of the DNA tag.
Kinase-tagged T7 phage strains were prepared in an E. coli host derived from the BL21 strain. E. coli were grown to log-phase and infected with T7 phage and incubated with shaking at 32° C. until lysis. The lysates were centrifuged and filtered to remove cell debris. The remaining kinases were produced in HEK-293 cells and subsequently tagged with DNA for qPCR detection. Streptavidin-coated magnetic beads were treated with biotinylated small molecule ligands for 30 minutes at room temperature to generate affinity resins for kinase assays. […] Kds were determined using an 11-point 3-fold compound dilution series with three DMSO control points. […] The kinase concentration in the eluates was measured by qPCR. […]
Binding constants (Kds) were calculated with a standard dose-response curve using the Hill equation: Response=Background+[Signal−Background/1+(Kd^Hill Slope/Dose^Hill Slope)] […]

pKd [2]: 5.77
SMILES: COc1c(O)ccc2c(=O)c(O)c(-c3ccc(CCCC[P+](c4ccccc4)(c4ccccc4)c4ccccc4)cc3)oc12 [SND190, (4-(4-(3,7-Dihydroxy-8-methoxy-4-oxo-4H1-chromen-2-yl)phenyl)butyl)triphenylphosphonium bromide]
pIC50 [1]: 5.96
